Test results published in patent publication US11198713B2, “Agents modulating beta-catenin functions and methods thereof” (FOG PHARMACEUTICALS, INC., priority 2017, dated 2021).

Target: T1, full-length beta-catenin (Axin site) (Homo sapiens, UniProt P35222)
T1 construct: 15 nM full-length beta-catenin, 20 nM FITC labeled peptide in buffer
T1 sequence (P35222 1-781): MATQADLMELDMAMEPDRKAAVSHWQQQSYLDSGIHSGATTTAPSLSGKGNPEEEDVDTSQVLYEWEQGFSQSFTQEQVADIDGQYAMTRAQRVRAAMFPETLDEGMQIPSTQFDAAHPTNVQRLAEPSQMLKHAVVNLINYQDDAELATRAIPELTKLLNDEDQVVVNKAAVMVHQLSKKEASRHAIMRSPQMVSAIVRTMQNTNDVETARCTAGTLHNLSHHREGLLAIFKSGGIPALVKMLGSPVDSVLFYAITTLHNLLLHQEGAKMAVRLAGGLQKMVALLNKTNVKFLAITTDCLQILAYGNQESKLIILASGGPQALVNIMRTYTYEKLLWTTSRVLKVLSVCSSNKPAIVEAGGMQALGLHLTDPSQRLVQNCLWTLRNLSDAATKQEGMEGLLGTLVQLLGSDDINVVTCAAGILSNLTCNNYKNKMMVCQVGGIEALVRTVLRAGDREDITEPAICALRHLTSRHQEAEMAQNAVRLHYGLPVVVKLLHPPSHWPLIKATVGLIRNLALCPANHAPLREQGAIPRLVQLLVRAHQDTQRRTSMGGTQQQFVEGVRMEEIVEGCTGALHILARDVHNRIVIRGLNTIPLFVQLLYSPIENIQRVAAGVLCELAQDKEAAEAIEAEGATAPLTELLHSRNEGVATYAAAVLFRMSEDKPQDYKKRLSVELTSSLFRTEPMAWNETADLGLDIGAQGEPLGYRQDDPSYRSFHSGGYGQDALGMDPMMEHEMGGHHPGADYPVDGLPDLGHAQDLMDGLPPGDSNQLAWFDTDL
Experiment: Competition fluorescence polarization assay (Axin site probe)
Assay type: binding
Conditions: competition fluorescence polarization, Table 2; read-out: in vitro FP EC50
Method in brief: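 Competition FP: 15 nM full-length β-catenin pre-incubated 5 min with 20 nM FITC-labelled stapled Axin-site peptide, then titrated peptide added (3-fold series from 5 μM) for 15 min in the dark. Buffer 50 mM Tris pH 8.0, 250 mM NaCl, 2% glycerol, 0.5 mM EDTA; duplicate reads.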

Compound | EC50
CC[C@H](C)[C@@H]1NC(=O)[C@](C)(NC(=O)[C@H](CCC(N)=O)NC(=O)[C@@H]2CCCN2C(C)=O)CCC=CCOC(=O)N2CC(C(=O)N[C@@H](Cc3c[nH]cn3)C(=O)N[C@H](C(=O)N[C@@H](CCCNC(=N)N)C(=O)N[C@@H](CCCNC(=N)N)C(=O)N[C@H](C(=O)N[C@@H](Cc3c[nH]c4ccccc34)C(=O)N[C@@H](CCCNC(=N)N)C(N)=O)C(C)C)C(C)C)(C2)NC(=O)[C@H](CC(=O)O)NC(=O)[C@H](CC(C)C)NC1=O (single isomer, unassigned) [FP0731c, Ac-P-Q-R4-I-L-D-MA-H-V-R-R-V-W-R-NH2] | 500 to 5000 nM
CC[C@H](C)[C@@H]1NC(=O)[C@](C)(NC(=O)[C@H](CCC(N)=O)NC(=O)[C@@H]2CCCN2C(C)=O)CCCC=CCOC(=O)N2CC(C(=O)N[C@@H](Cc3c[nH]cn3)C(=O)N[C@H](C(=O)N[C@@H](CCCNC(=N)N)C(=O)N[C@@H](CCCNC(=N)N)C(=O)N[C@H](C(=O)N[C@@H](Cc3c[nH]c4ccccc34)C(=O)N[C@@H](CCCNC(=N)N)C(N)=O)C(C)C)C(C)C)(C2)NC(=O)[C@H](CC(=O)O)NC(=O)[C@H](CC(C)C)NC1=O (single isomer, unassigned) [FP0733c, Ac-P-Q-R5-I-L-D-MA-H-V-R-R-V-W-R-NH2] | 500 to 5000 nM
CC[C@H](C)[C@@H]1NC(=O)[C@@](C)(NC(=O)[C@H](CCC(N)=O)NC(=O)[C@@H]2CCCN2C(C)=O)CCCC=CCOC(=O)N2CC(C(=O)N[C@@H](Cc3c[nH]cn3)C(=O)N[C@H](C(=O)N[C@@H](CCCNC(=N)N)C(=O)N[C@@H](CCCNC(=N)N)C(=O)N[C@H](C(=O)N[C@@H](Cc3c[nH]c4ccccc34)C(=O)N[C@@H](CCCNC(=N)N)C(N)=O)C(C)C)C(C)C)(C2)NC(=O)[C@H](CC(=O)O)NC(=O)[C@H](CC(C)C)NC1=O (single isomer, unassigned) [FP0734c, Ac-P-Q-S5-I-L-D-MA-H-V-R-R-V-W-R-NH2] | > 5000 nM
CC[C@H](C)[C@@H]1NC(=O)[C@@](C)(NC(=O)[C@H](CCC(N)=O)NC(=O)[C@@H]2CCCN2C(C)=O)CCCCC=CCOC(=O)N2CC(C(=O)N[C@@H](Cc3c[nH]cn3)C(=O)N[C@H](C(=O)N[C@@H](CCCNC(=N)N)C(=O)N[C@@H](CCCNC(=N)N)C(=O)N[C@H](C(=O)N[C@@H](Cc3c[nH]c4ccccc34)C(=O)N[C@@H](CCCNC(=N)N)C(N)=O)C(C)C)C(C)C)(C2)NC(=O)[C@H](CC(=O)O)NC(=O)[C@H](CC(C)C)NC1=O (single isomer, unassigned) [FP0736c, Ac-P-Q-S6-I-L-D-MA-H-V-R-R-V-W-R-NH2] | 500 to 5000 nM
CC[C@H](C)[C@@H]1NC(=O)[C@@](C)(NC(=O)[C@H](CCC(N)=O)NC(=O)[C@@H]2CCCN2C(C)=O)CCCCCC=CCOC(=O)N2CC(C(=O)N[C@@H](Cc3c[nH]cn3)C(=O)N[C@H](C(=O)N[C@@H](CCCNC(=N)N)C(=O)N[C@@H](CCCNC(=N)N)C(=O)N[C@H](C(=O)N[C@@H](Cc3c[nH]c4ccccc34)C(=O)N[C@@H](CCCNC(=N)N)C(N)=O)C(C)C)C(C)C)(C2)NC(=O)[C@H](CC(=O)O)NC(=O)[C@H](CC(C)C)NC1=O (single isomer, unassigned) [FP0738c, Ac-P-Q-S7-I-L-D-MA-H-V-R-R-V-W-R-NH2] | 500 to 5000 nM
CC[C@H](C)[C@@H]1NC(=O)[C@@]2(NC(=O)[C@H](CCC(N)=O)NC(=O)[C@@H]3CCCN3C(C)=O)CCN(CC=CCCC[C@](C)(C(=O)N[C@@H](Cc3c[nH]cn3)C(=O)N[C@H](C(=O)N[C@@H](CCCNC(=N)N)C(=O)N[C@@H](CCCNC(=N)N)C(=O)N[C@H](C(=O)N[C@@H](Cc3c[nH]c4ccccc34)C(=O)N[C@@H](CCCNC(=N)N)C(N)=O)C(C)C)C(C)C)NC(=O)[C@H](CC(=O)O)NC(=O)[C@H](CC(C)C)NC1=O)C2 (single isomer, unassigned) [FP0743a, Ac-P-Q-MC-I-L-D-R5-H-V-R-R-V-W-R-NH2] | > 5000 nM
CC[C@H](C)[C@@H]1NC(=O)[C@@]2(NC(=O)[C@H](CCC(N)=O)NC(=O)[C@@H]3CCCN3C(C)=O)CCN(C2)C(=O)OCC=CCCC[C@](C)(C(=O)N[C@@H](Cc2c[nH]cn2)C(=O)N[C@H](C(=O)N[C@@H](CCCNC(=N)N)C(=O)N[C@@H](CCCNC(=N)N)C(=O)N[C@H](C(=O)N[C@@H](Cc2c[nH]c3ccccc23)C(=O)N[C@@H](CCCNC(=N)N)C(N)=O)C(C)C)C(C)C)NC(=O)[C@H](CC(=O)O)NC(=O)[C@H](CC(C)C)NC1=O (single isomer, unassigned) [FP0743c, Ac-P-Q-MC-I-L-D-R5-H-V-R-R-V-W-R-NH2] | 500 to 5000 nM
CC[C@H](C)[C@@H]1NC(=O)[C@]2(NC(=O)[C@H](CCC(N)=O)NC(=O)[C@@H]3CCCN3C(C)=O)CCN(CC=CCCC[C@@](C)(C(=O)N[C@@H](Cc3c[nH]cn3)C(=O)N[C@H](C(=O)N[C@@H](CCCNC(=N)N)C(=O)N[C@@H](CCCNC(=N)N)C(=O)N[C@H](C(=O)N[C@@H](Cc3c[nH]c4ccccc34)C(=O)N[C@@H](CCCNC(=N)N)C(N)=O)C(C)C)C(C)C)NC(=O)[C@H](CC(=O)O)NC(=O)[C@H](CC(C)C)NC1=O)C2 (single isomer, unassigned) [FP0751a, Ac-P-Q-MB-I-L-D-S5-H-V-R-R-V-W-R-NH2] | > 5000 nM
CC[C@H](C)[C@@H]1NC(=O)[C@]2(NC(=O)[C@H](CCC(N)=O)NC(=O)[C@@H]3CCCN3C(C)=O)CCN(C2)C(=O)OCC=CCCC[C@@](C)(C(=O)N[C@@H](Cc2c[nH]cn2)C(=O)N[C@H](C(=O)N[C@@H](CCCNC(=N)N)C(=O)N[C@@H](CCCNC(=N)N)C(=O)N[C@H](C(=O)N[C@@H](Cc2c[nH]c3ccccc23)C(=O)N[C@@H](CCCNC(=N)N)C(N)=O)C(C)C)C(C)C)NC(=O)[C@H](CC(=O)O)NC(=O)[C@H](CC(C)C)NC1=O (single isomer, unassigned) [FP0751c, Ac-P-Q-MB-I-L-D-S5-H-V-R-R-V-W-R-NH2] | 500 to 5000 nM

Further lines, results first:

EC50 | Compound
> 5000 nM | CC[C@H](C)[C@@H]1NC(=O)[C@@](C)(NC(=O)[C@H](CCC(N)=O)NC(=O)[C@@H]2CCCN2C(C)=O)CCCC=CCN2CC(C(=O)N[C@@H](Cc3c[nH]cn3)C(=O)N[C@H](C(=O)N[C@@H](CCCNC(=N)N)C(=O)N[C@@H](CCCNC(=N)N)C(=O)N[C@H](C(=O)N[C@@H](Cc3c[nH]c4ccccc34)C(=O)N[C@@H](CCCNC(=N)N)C(N)=O)C(C)C)C(C)C)(C2)NC(=O)[C@H](CC(=O)O)NC(=O)[C@H](CC(C)C)NC1=O (single isomer, unassigned) [FP0734a, Ac-P-Q-S5-I-L-D-MA-H-V-R-R-V-W-R-NH2]
500 to 5000 nM | CC[C@H](C)[C@@H]1NC(=O)[C@](C)(NC(=O)[C@H](CCC(N)=O)NC(=O)[C@@H]2CCCN2C(C)=O)CCCCC=CCN2CC(C(=O)N[C@@H](Cc3c[nH]cn3)C(=O)N[C@H](C(=O)N[C@@H](CCCNC(=N)N)C(=O)N[C@@H](CCCNC(=N)N)C(=O)N[C@H](C(=O)N[C@@H](Cc3c[nH]c4ccccc34)C(=O)N[C@@H](CCCNC(=N)N)C(N)=O)C(C)C)C(C)C)(C2)NC(=O)[C@H](CC(=O)O)NC(=O)[C@H](CC(C)C)NC1=O (single isomer, unassigned) [FP0735a, Ac-P-Q-R6-I-L-D-MA-H-V-R-R-V-W-R-NH2]
500 to 5000 nM | CC[C@H](C)[C@@H]1NC(=O)[C@](C)(NC(=O)[C@H](CCC(N)=O)NC(=O)[C@@H]2CCCN2C(C)=O)CCCCC=CCOC(=O)N2CC(C(=O)N[C@@H](Cc3c[nH]cn3)C(=O)N[C@H](C(=O)N[C@@H](CCCNC(=N)N)C(=O)N[C@@H](CCCNC(=N)N)C(=O)N[C@H](C(=O)N[C@@H](Cc3c[nH]c4ccccc34)C(=O)N[C@@H](CCCNC(=N)N)C(N)=O)C(C)C)C(C)C)(C2)NC(=O)[C@H](CC(=O)O)NC(=O)[C@H](CC(C)C)NC1=O (single isomer, unassigned) [FP0735c, Ac-P-Q-R6-I-L-D-MA-H-V-R-R-V-W-R-NH2]
100 to 500 nM | CC[C@H](C)[C@@H]1NC(=O)[C@@](C)(NC(=O)[C@H](CCC(N)=O)NC(=O)[C@@H]2CCCN2C(C)=O)CCCCC=CCN2CC(C(=O)N[C@@H](Cc3c[nH]cn3)C(=O)N[C@H](C(=O)N[C@@H](CCCNC(=N)N)C(=O)N[C@@H](CCCNC(=N)N)C(=O)N[C@H](C(=O)N[C@@H](Cc3c[nH]c4ccccc34)C(=O)N[C@@H](CCCNC(=N)N)C(N)=O)C(C)C)C(C)C)(C2)NC(=O)[C@H](CC(=O)O)NC(=O)[C@H](CC(C)C)NC1=O (single isomer, unassigned) [FP0736a, Ac-P-Q-S6-I-L-D-MA-H-V-R-R-V-W-R-NH2]
100 to 500 nM | CC[C@H](C)[C@@H]1NC(=O)[C@@]2(NC(=O)[C@H](CCC(N)=O)NC(=O)[C@@H]3CCCN3C(C)=O)CCN(C2)C(=O)OCC=CCCCC[C@](C)(C(=O)N[C@@H](Cc2c[nH]cn2)C(=O)N[C@H](C(=O)N[C@@H](CCCNC(=N)N)C(=O)N[C@@H](CCCNC(=N)N)C(=O)N[C@H](C(=O)N[C@@H](Cc2c[nH]c3ccccc23)C(=O)N[C@@H](CCCNC(=N)N)C(N)=O)C(C)C)C(C)C)NC(=O)[C@H](CC(=O)O)NC(=O)[C@H](CC(C)C)NC1=O (single isomer, unassigned) [FP0745c, Ac-P-Q-MC-I-L-D-R6-H-V-R-R-V-W-R-NH2]
